{
  "source": "PubChem BioAssay AID493048",
  "about": "(Broad Institute, 2011)",
  "note": "The source made the active and inactive calls. How the calls were made is not given here.",
  "data": [
    {"target": "GTP-binding nuclear protein Ran (Homo sapiens) + Importin subunit beta-1 (Homo sapiens) (UniProt P62826+Q14974)", "assay": "RanGTP/importin-beta interaction disruptors – biochemical, plate reader, dry powder, dose response (AID 493048)", "settings": "biochemical RanGTP-importin-beta complex", "units": {"AC50": "µM"}, "values": [
      {"smiles": "O=C(O)Cn1cc(/C=C2\\SC(=O)N(CC(=O)N3CCCCCC3)C2=O)c2ccccc21", "AC50": 90.9},
      {"smiles": "COc1ccc(CCNC(=O)c2cc3c(=O)n4cccc(C)c4nc3n(CCCN3CCOCC3)c2=N)cc1", "AC50": 9.68},
      {"smiles": "CC1=C(C(=O)OCC2CCCO2)C(c2ccccc2OC(C)C)C2C(=O)CC(c3ccco3)CC2=N1", "note": "(stereo unspecified)", "AC50": 10.3},
      {"smiles": "CC(C)SCC(=O)Nc1ncc2c(n1)-c1ccccc1CC2", "AC50": 37.3},
      {"smiles": "COc1cc(OC)cc(C(=O)NCCNc2nc3cc(C)cc(C)c3cc2C#N)c1", "AC50": 12.9},
      {"smiles": "C=CCn1c(N)c(C(=O)OCCC)c2nc3ccccc3nc21", "AC50": 36.4},
      {"smiles": "COc1ccc(-c2cc(C(F)(F)F)n3nc(N)nc3n2)cc1", "AC50": 61.5},
      {"smiles": "Cc1cccc(-n2c(C)cc(/C=C3/C(=N)N4N=C(CC(C)C)SC4=NC3=O)c2C)c1", "AC50": 28.2}
    ]},
    {"target": "GTP-binding nuclear protein Ran (Homo sapiens) + Importin subunit beta-1 (Homo sapiens) (UniProt P62826+Q14974)", "assay": "RanGTP/importin-beta interaction disruptors – biochemical, plate reader, dry powder, dose response (AID 493048)", "settings": "biochemical RanGTP-importin-beta complex, at 26 µM (top of the series)", "values": [
      {"smiles": "CCCN(CCC)c1nc(N2CCCC2)c2cc(OC)c(OC)cc2n1", "activity change, negative = inhibition": "inactive"}
    ]},
    {"target": "GTP-binding nuclear protein Ran (Homo sapiens) + Importin subunit beta-1 (Homo sapiens) (UniProt P62826+Q14974)", "assay": "RanGTP/importin-beta interaction disruptors – biochemical, plate reader, dry powder, dose response (AID 493048)", "settings": "biochemical RanGTP-importin-beta complex, at 50 µM (top of the series)", "values": [
      {"smiles": "CCCN(CCC)c1nc(N2CCCC2)nc2cc(OC)c(OC)cc12", "activity change, negative = inhibition": "inactive"}
    ]},
    {"target": "GTP-binding nuclear protein Ran (Homo sapiens) + Importin subunit beta-1 (Homo sapiens) (UniProt P62826+Q14974)", "assay": "RanGTP/importin-beta interaction disruptors – biochemical, plate reader, dry powder, dose response (AID 493048)", "settings": "biochemical RanGTP-importin-beta complex, at 100 µM (top of the series)", "values": [
      {"smiles": "CC1(C)CC(=O)c2c(C(F)(F)F)nn(-c3ccc(C(N)=O)c(NC4CCC(O)CC4)c3)c2C1", "note": "(stereo unspecified)", "activity change, negative = inhibition": "inactive"},
      {"smiles": "Cc1cc(Nc2ccc(C(F)(F)F)cc2)n2ncnc2n1", "activity change, negative = inhibition": "inactive"},
      {"smiles": "CCNc1nc(N2CCCC2)nc2ccccc12", "activity change, negative = inhibition": "inactive"},
      {"smiles": "CCN(CC)c1nc(N2CCCC2)nc2ccccc12", "activity change, negative = inhibition": "inactive"},
      {"smiles": "CCCN(CCC)c1nc(N)c2ccccc2n1", "activity change, negative = inhibition": "inactive"},
      {"smiles": "CC1(C)CCC(c2ccc(Cl)cc2)=C(CN2CCN(c3ccc(C(=O)NS(=O)(=O)c4ccc(N[C@H](CCN5CCOCC5)CSc5ccccc5)c(S(=O)(=O)C(F)(F)F)c4)cc3)CC2)C1", "activity change, negative = inhibition": "inactive"},
      {"smiles": "c1ccc2c(N3CCCC3)nc(N3CCCC3)nc2c1", "activity change, negative = inhibition": "inactive"},
      {"smiles": "Clc1nc(NCc2ccccc2)c2ccccc2n1", "activity change, negative = inhibition": "inactive"},
      {"smiles": "C[C@@H](Nc1nc(N2CCCC2)nc2ccccc12)c1ccccc1", "activity change, negative = inhibition": "inactive"},
      {"smiles": "CC1(C)CC(=O)c2c(C(F)(F)F)nn(-c3ccc(C(N)=O)c(NC4CCC(OC(=O)CN)CC4)c3)c2C1", "note": "(stereo unspecified)", "activity change, negative = inhibition": "inactive"},
      {"smiles": "C[C@@H](Nc1nc(Cl)nc2ccccc12)c1ccccc1", "activity change, negative = inhibition": "inactive"},
      {"smiles": "CC1(C)CC(=O)c2c(C(F)(F)F)nn(-c3ccc(C(N)=O)c(OC4CCC(N)CC4)c3)c2C1", "note": "(stereo unspecified)", "activity change, negative = inhibition": "inactive"},
      {"smiles": "CCCN(CCC)c1nc(Cl)nc2ccccc12", "activity change, negative = inhibition": "inactive"},
      {"smiles": "CCCN(CCC)c1nc(N2CCCC2)nc2ccccc12", "activity change, negative = inhibition": "inactive"},
      {"smiles": "COc1cc2nc(N3CCCC3)nc(N3CCCC3)c2cc1OC", "activity change, negative = inhibition": "inactive"},
      {"smiles": "CCCN(CCC)c1nc(N2CCOCC2)nc2ccccc12", "activity change, negative = inhibition": "inactive"},
      {"smiles": "CCCN(CCC)c1nc(NCc2ccccc2)nc2ccccc12", "activity change, negative = inhibition": "inactive"},
      {"smiles": "c1ccc(CNc2nc(N3CCCC3)nc3ccccc23)cc1", "activity change, negative = inhibition": "inactive"},
      {"smiles": "CC(Nc1nc(N2CCCC2)nc2ccccc12)c1ccccc1", "note": "(stereo unspecified)", "activity change, negative = inhibition": "inactive"},
      {"smiles": "C[C@H](Nc1nc(Cl)nc2ccccc12)c1ccccc1", "activity change, negative = inhibition": "inactive"},
      {"smiles": "c1ccc2c(N3CCOCC3)nc(N3CCOCC3)nc2c1", "activity change, negative = inhibition": "inactive"},
      {"smiles": "C[C@H](Nc1nc(N2CCCC2)nc2ccccc12)c1ccccc1", "activity change, negative = inhibition": "inactive"},
      {"smiles": "Cc1cccc(C)c1NC(=O)C1C(=O)c2sccc2N(C)S1(=O)=O", "note": "(stereo unspecified)", "activity change, negative = inhibition": "inactive"},
      {"smiles": "CCCN(CCC)c1nc(N2CCNCC2)c2ccccc2n1", "activity change, negative = inhibition": "inactive"},
      {"smiles": "O=c1[nH]c(N2CCCC2)nc2ccccc12", "activity change, negative = inhibition": "inactive"},
      {"smiles": "CSc1ccc(/C=C(/Sc2nnc(-c3ccccc3)o2)C(=O)O)cc1", "activity change, negative = inhibition": "inactive"}
    ]}
  ]
}
